Measurements reported in article PMC7949037, “The allosteric inhibition of glycine transporter 2 by bioactive lipid analgesics is controlled by penetration into a deep lipid cavity” (The Journal of Biological Chemistry, 2021).
Where two headings read alike, the source gives them in different places. Marks after values point to notes of the source that are not given here. Blank lines part the entries; values can stand above or below the molecule they belong to.

Legend:
GlyT1 [1] = molecular target: T1, GlyT1 (Homo sapiens, UniProt P48067); experiment: Selectivity test against GlyT1 transporter, two-electrode voltage clamp electrophysiology; type: cell-based
T1 construct: expressed in transfected cells
T1 sequence (P48067 1-706): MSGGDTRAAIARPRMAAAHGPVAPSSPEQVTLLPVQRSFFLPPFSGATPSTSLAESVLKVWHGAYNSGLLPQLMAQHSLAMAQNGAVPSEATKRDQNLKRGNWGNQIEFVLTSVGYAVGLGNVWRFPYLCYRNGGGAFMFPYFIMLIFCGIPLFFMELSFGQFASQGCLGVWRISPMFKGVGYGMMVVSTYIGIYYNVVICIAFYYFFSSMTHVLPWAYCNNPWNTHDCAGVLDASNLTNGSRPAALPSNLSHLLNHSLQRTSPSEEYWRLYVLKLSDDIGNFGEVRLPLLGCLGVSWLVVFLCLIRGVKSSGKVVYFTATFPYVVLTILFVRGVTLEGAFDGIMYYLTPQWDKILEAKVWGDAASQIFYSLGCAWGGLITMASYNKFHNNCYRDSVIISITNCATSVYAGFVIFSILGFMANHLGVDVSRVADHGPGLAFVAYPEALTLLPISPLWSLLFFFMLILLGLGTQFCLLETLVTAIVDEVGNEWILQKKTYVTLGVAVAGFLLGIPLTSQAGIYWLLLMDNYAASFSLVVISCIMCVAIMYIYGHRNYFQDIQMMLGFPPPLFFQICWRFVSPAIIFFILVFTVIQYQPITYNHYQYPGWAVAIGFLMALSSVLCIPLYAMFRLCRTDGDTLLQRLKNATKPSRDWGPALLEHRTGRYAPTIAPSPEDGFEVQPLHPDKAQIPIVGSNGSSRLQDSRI
Excerpt: The lipid inhibitors described previously contain 18 carbon acyl tails with a cis-double bond in the Δ9 position (i.e., nine bonds from the amide linkage to the amino acid head group), and penetration of the lipid tails into the allosteric site appears to be a critical determinant of inhibitory activity. To investigate the effect of tail length on GlyT2 inhibitory activity, we synthesized D- and L-lysine–based inhibitors with truncated tails. Double bonds were maintained in the Δ9 position, and overall chain lengths were reduced to C16 or C14 (C16ω7-Lys and C14ω5-Lys, respectively). The chemical structures of these new lipids are shown in Figure 1, and their synthesis and characterization are described in the Supporting information section. Newly synthesized acyl lysine analogs were then tested against GlyT2 and also tested for selectivity by testing against the closely related GlyT1 transporter using two-electrode voltage clamp electrophysiology (see Table 1 for inhibitory data).
(§1) GlyT2 is electrogenic, allowing activation to be measured via the two-electrode voltage clamp technique. Oocytes were voltage clamped at −60 mV, and whole-cell currents generated by the substrate were recorded with a Geneclamp 500 amplifier (Axon Instruments), digitized by a Powerlab 2/20 chart recorder (ADInstruments). LabChart version 8 software (ADInstruments, Axon Instruments) was used to visualize and process current traces. Recordings were performed in frog Ringer's solution. Oocytes were placed in an oval-shaped bath with a volume of 0.3 ml, with laminar flow around the oocyte at a rate of 12 ml min^−1 under gravity feed.
(§2) Each of the synthesized acyl-lysine compounds were first tested for their inhibitory activity by coapplying the analogs with 30 μM glycine and assessing their ability to reduce glycine transport currents. Increasing concentrations of each acyl-lysine inhibitor were applied to generate concentration response curves, from which IC50 values and percent maximal inhibition values were calculated.

[2] = molecular target: T2, human glycine transporter 2 (GlyT2 or SLC6A5) (Homo sapiens, UniProt Q9Y345); experiment: Inhibition of glycine transport currents, two-electrode voltage clamp in oocytes expressing WT GlyT2; type: cell-based; conditions: for % Maximal inhibition / IC50: GlyT2; for IC50: 30 μM glycine, 95% confidence interval in brackets; for Fold less potent than the corresponding L-isomer: GlyT2 IC50, D-isomer versus L-isomer
T2 construct: expressed in transfected cells; host or cells: Xenopus laevis oocytes injected with cRNA
T2 sequence (Q9Y345 1-797): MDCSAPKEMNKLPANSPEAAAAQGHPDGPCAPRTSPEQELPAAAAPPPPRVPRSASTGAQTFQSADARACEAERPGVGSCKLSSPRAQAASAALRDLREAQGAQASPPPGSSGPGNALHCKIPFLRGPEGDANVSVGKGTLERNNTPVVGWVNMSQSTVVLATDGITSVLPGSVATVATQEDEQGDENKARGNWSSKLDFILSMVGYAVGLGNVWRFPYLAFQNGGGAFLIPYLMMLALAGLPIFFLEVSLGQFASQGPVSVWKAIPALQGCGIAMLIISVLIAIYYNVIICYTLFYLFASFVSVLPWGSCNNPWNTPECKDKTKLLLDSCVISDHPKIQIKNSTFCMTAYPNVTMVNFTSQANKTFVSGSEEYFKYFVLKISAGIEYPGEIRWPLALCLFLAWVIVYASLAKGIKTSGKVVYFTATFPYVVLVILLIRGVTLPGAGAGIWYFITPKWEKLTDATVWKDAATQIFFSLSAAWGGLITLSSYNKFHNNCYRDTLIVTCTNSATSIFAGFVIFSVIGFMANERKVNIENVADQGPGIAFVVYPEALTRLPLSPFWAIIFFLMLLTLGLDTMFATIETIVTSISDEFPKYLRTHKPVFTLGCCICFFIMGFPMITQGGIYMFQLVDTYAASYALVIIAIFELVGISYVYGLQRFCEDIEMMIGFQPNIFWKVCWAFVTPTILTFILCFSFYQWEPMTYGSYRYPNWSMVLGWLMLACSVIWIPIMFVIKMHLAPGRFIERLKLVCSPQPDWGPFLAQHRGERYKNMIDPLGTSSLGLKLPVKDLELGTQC
Experimental: All N-acyl amino acids were synthesized as previously described ([13]). See Supporting Information for full details. Stock solutions of 10 mg ml^−1 of N-acyl amino acids were dissolved in dimethyl sulfoxide and diluted in frog Ringer's solution (96 mM NaCl, 2 mM KCl, 1 mM MgCl2, 1.8 mM CaCl2, 5 mM Hepes, pH 7.5) to desired concentrations. Final solutions contained 0.0025% dimethyl sulfoxide, a concentration that had no effect on transporter or receptor function.
Human GlyT2a WT complementary DNA was subcloned into the plasmid oocyte transcription vector. The amplified GlyT2/plasmid oocyte transcription vector product was then transformed in Escherichia coli cells and subsequently purified using the PureLink Quick Plasmid Miniprep Kit (Invitrogen by Life Technologies) and sequenced by the Australian Genome Research Facility (Sydney, Australia). The purified plasmid DNA was linearized via the restriction enzyme, SpeI (New England Biolabs [Genesearch]) for GlyT2a. Complementary RNAs were synthesized using the mMESAGE mMACHINE T7 kit (Ambion).
All work involving the use of animals was performed in accordance with the Australian Code of Practice for the Care and Use of Animals for Scientific Purposes. […] Stage V oocytes were isolated from the lobe via digestion with 2 mg ml^−1 collagenase A (Boehringer) at 26 °C for 1 h, and 20 ng of cRNA encoding GlyT2 was injected into each oocyte cytoplasm (Drummond Nanoinject; Drummond Scientific Co). The oocytes were then stored in frog Ringer's solution (96 mM NaCl, 2 mM KCl, 1 mM MgCl2, 1.8 mM CaCl2, 5 mM Hepes, pH 7.5), which was supplemented with 2.5 mM sodium pyruvate, 0.5 mM theophylline, 50 μg/ml gentamicin and […] tetracycline. The oocytes were stored at 18 °C for 3 to 5 days, until transporter expression was adequate for measurement using the two-electrode voltage clamp technique. Adequate transporter expression was defined as a ≥30 nA current following application of the glycine EC50.
as §1, §2

[3] = molecular target: T2, human glycine transporter 2 (GlyT2 or SLC6A5); conditions: cited from earlier work; for % Maximal inhibition / IC50: previously published data, ref Mostyn et al., 2019 ([6]); for GlyT2 inhibitory activity in words: D-configuration head group
GlyT1 [4] = molecular target: T1, GlyT1; design: method as in Mostyn et al., 2019 ([6]); conditions: previously published data, ref Mostyn et al., 2019 ([6]), cited from earlier work
GlyT2 Y550L = system: GlyT2 Y550L; design: method as in PMID 31621581; conditions: mutagenesis data; cited from earlier work
[5] = cited from earlier work
[6] = cited from earlier work; remark: listed apart in the source
[7] = system: rat model of neuropathic pain; conditions: cited from earlier work
GlyT2 W563L = system: GlyT2 W563L; design: method as in PMID 31621581; conditions: mutagenesis data; cited from earlier work
GlyT2 = conditions: most potent small molecule GlyT2 inhibitor to date, reference not given; cited from earlier work

Compound: CCCCCCCCC=CCCCCCCCC(=O)NC(Cc1c[nH]c2ccccc12)C(=O)O [C18ω9-D-Trp]
% Maximal inhibition ([3]; D-Head group stereochemistry): 14.2 ^a % | IC50 ([3]; D-Head group stereochemistry, μM): > 10 µM | GlyT2 inhibitory activity in words [3]: inactive | IC50 (GlyT1 [4]; D-Head group stereochemistry): > 10000 nM

Compound: CCCCCCCCC=CCCCCCCCC(=O)NC(Cc1c[nH]c2ccccc12)C(=O)O [C18ω9-L-Trp]
% Maximal inhibition ([3]; L-Head group stereochemistry): 86.2 ^a % | IC50 ([3]; L-Head group stereochemistry): 0.0546 µM | IC50 (GlyT1 [4]; L-Head group stereochemistry): > 10000 nM

Compound: CCCCCCCC/C=C\CCCCCCCC(=O)N[C@H](CCCCN)C(=O)O [C18ω9-D-Lys, oleoyl D-lysine]
Inhibition of GlyT2 Y550L mutant (GlyT2 Y550L): not inhibited | % Maximal inhibition ([3]; D-Head group stereochemistry): 91.0 ^a % | IC50 ([3]; D-Head group stereochemistry): 0.0483 µM | GlyT2 inhibitory activity in words [3]: retains potency | Metabolic stability [5]: metabolically stable | IC50 (GlyT1 [4]; D-Head group stereochemistry): > 3000 nM | Blood-brain barrier permeability [6]: blood–brain barrier permeable | Analgesia [7]: produces analgesia | Side effects [7]: minimal side effects | Inhibition of GlyT2 W563L mutant (GlyT2 W563L): not inhibited

Compound: CCCCCCCC/C=C\CCCCCCCC(=O)N[C@@H](CCCCN)C(=O)O [C18ω9-L-Lys, oleoyl-L-lysine]
Inhibition of GlyT2 Y550L mutant (GlyT2 Y550L): not inhibited | % Maximal inhibition ([3]; L-Head group stereochemistry): 86.8 ^a % | IC50 ([3]; L-Head group stereochemistry): 0.0255 µM | IC50 (GlyT1 [4]; L-Head group stereochemistry): > 3000 nM | Inhibition of GlyT2 W563L mutant (GlyT2 W563L): not inhibited

Compound: COc1cc(C(=O)NCC2(N(C)C)CCCC2)cc(OC)c1OCc1ccccc1 [ORG25543]
IC50 (GlyT2): 16 nM

Further lines, results first:

IC50 (GlyT1 [1]; D-Head group stereochemistry): > 3000 nM | % Maximal inhibition ([2]; D-Head group stereochemistry): 91.8 ± 8.6% | IC50 ([2]; D-Head group stereochemistry): 699 nM | Fold less potent than the corresponding L-isomer [2]: 65 fold
Compound: CCC=CCCCCCCCCCCCC(=O)NC(CCCCN)C(=O)O [C16ω3-D-Lys]

IC50 (GlyT1 [1]; L-Head group stereochemistry): > 3000 nM | % Maximal inhibition ([2]; L-Head group stereochemistry): 96.2 ± 7.3% | IC50 ([2]; L-Head group stereochemistry): 703 nM
Compound: CCCCC=CCCCCCCCC(=O)NC(CCCCN)C(=O)O [C14ω5-L-Lys]

IC50 (GlyT1 [1]; L-Head group stereochemistry): > 3000 nM | % Maximal inhibition ([2]; L-Head group stereochemistry): 94.9 ± 1.6% | IC50 ([2]; L-Head group stereochemistry): 10.8 nM
Compound: CCC=CCCCCCCCCCCCC(=O)NC(CCCCN)C(=O)O [C16ω3-L-Lys]

IC50 (GlyT1 [1]; L-Head group stereochemistry): > 3000 nM | % Maximal inhibition ([2]; L-Head group stereochemistry): 90.2 ± 2.1% | IC50 ([2]; L-Head group stereochemistry): 66.6 nM
Compound: CCCCCCC=CCCCCCCCC(=O)NC(CCCCN)C(=O)O [C16ω7-L-Lys]

IC50 (GlyT1 [1]; D-Head group stereochemistry): > 3000 nM | % Maximal inhibition ([2]; D-Head group stereochemistry): 87.6 ± 3.7% | IC50 ([2]; D-Head group stereochemistry): 64.9 nM
Compound: CCCCC=CCCCCCCCCCCCC(=O)NC(CCCCN)C(=O)O [C18ω5-D-Lys]

IC50 (GlyT1 [1]; L-Head group stereochemistry): > 3000 nM | % Maximal inhibition ([2]; L-Head group stereochemistry): 81.3 ± 5.1% | IC50 ([2]; L-Head group stereochemistry): 67.5 nM
Compound: CCCCC=CCCCCCCCCCCCC(=O)NC(CCCCN)C(=O)O [C18ω5-L-Lys]

IC50 (GlyT1 [1]; D-Head group stereochemistry): > 3000 nM | % Maximal inhibition ([2]; D-Head group stereochemistry): 96.2 ± 2.1% | IC50 ([2]; D-Head group stereochemistry): 602 nM | Fold reduced potency relative to C18ω9-D-Lys ([2]; GlyT2 IC50): 12 fold | Fold less potent than the corresponding L-isomer [2]: ninefold
Compound: CCCCCC/C=C\CCCCCCCC(=O)N[C@H](CCCCN)C(=O)O [C16ω7-D-Lys]

IC50 (GlyT1 [1]; D-Head group stereochemistry): > 3000 nM | % Maximal inhibition ([2]; D-Head group stereochemistry): 79.7 ± 3.6% | IC50 ([2]; D-Head group stereochemistry): 1380 nM
Compound: CCCC/C=C\CCCCCCCC(=O)N[C@H](CCCCN)C(=O)O [C14ω5-D-Lys]
